In one experiment the target is T1, CDK6-CYCLIND3 (Homo sapiens, UniProt Q00534).
T1 construct: purchased Carna
Put plainly: CDK inhibition assay (microfluidic LabChip, IC50 format). It is filed as biochemical. The note with it: Table 4b, upper part; read-out: CDK6 IC50.

The target in the next experiment is CDK4-CYCLIND1 (Homo sapiens, UniProt P11802). The experiment is described as above. The note with it: CDK4 IC50, Table 4b, upper part.
CDK4-CYCLIND1, sequence (P11802 whole entry): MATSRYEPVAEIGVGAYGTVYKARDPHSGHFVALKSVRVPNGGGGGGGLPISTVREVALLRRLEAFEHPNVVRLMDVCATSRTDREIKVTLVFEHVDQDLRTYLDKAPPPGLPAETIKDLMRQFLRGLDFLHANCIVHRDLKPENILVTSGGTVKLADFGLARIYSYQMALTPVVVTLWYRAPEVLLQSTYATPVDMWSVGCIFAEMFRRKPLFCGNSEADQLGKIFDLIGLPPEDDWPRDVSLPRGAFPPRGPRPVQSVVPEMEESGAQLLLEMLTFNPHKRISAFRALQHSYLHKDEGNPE
CDK4-CYCLIND1, sequence (P24385 whole entry partner): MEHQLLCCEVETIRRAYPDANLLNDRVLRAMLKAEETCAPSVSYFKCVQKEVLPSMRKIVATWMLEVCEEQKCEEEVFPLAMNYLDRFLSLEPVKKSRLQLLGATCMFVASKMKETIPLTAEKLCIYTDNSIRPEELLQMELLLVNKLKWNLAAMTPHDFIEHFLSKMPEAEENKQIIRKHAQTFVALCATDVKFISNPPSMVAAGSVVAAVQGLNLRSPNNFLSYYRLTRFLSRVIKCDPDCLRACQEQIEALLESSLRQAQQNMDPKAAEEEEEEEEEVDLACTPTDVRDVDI

T1 sequence (Q00534 whole entry): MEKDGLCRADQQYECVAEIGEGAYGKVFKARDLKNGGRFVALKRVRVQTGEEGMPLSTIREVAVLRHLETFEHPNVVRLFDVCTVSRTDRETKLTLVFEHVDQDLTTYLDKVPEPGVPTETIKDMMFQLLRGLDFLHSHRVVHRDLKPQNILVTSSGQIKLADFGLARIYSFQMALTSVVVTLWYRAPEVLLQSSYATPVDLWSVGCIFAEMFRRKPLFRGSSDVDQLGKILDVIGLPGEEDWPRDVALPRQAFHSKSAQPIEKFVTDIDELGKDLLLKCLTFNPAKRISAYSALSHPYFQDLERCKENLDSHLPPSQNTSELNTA
T1 sequence (P30281 whole entry partner): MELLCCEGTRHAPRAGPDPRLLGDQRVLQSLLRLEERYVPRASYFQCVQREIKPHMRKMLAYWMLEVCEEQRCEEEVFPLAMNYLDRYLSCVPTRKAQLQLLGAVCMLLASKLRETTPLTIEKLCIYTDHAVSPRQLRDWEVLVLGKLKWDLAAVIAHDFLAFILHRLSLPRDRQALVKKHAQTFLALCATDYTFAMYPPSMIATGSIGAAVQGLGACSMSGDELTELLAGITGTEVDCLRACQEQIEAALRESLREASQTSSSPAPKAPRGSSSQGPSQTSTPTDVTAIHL

As to `CN1C(=O)CC2(Cc3cnc(Nc4ccc(N5CCNCC5)nc4)nc3N(C3CCCC3)C2=O)C1=O` (centres unmarked) [Example D24, 8-cyclopentyl-1′-methyl-2-((6-(piperazin-1-yl)pyridin-3-yl)amino)-5,8-dihydro-7H-spiro[pyrido[2,3-d]pyrimidine-6,3′-pyrrolidine]-2′,5′,7-trione], the figures for the IC50 at CDK6-CYCLIND3 and against CDK4-CYCLIND1 were 373 nM and 127 nM, respectively.
The matching figures for `CN1CCN(c2ccc(Nc3ncc4c(n3)N(C3CCCC3)C(=O)C3(CC(=O)N(C)C3=O)C4)cn2)CC1` (centres unmarked) [Example D25, 8-cyclopentyl-1′-methyl-2-((6-(4-methylpiperazin-1-yl)pyridin-3-yl)amino)-5,8-dihydro-7H-spiro[pyrido[2,3-d]pyrimidine-6,3′-pyrrolidine]-2′,5′,7-trione]: 455 nM and 135 nM.
Take `CC(C)N1CCN(c2ccc(Nc3ncc4c(n3)N(C3CCCC3)C(=O)C3(CC(=O)N(C)C3=O)C4)cn2)CC1` (centres unmarked) [Example D26, 8-cyclopentyl-2-((6-(4-isopropylpiperazin-1-yl)pyridin-3-yl)amino)-1′-methyl-5,8-dihydro-7H-spiro[pyrido[2,3-d]pyrimidine-6,3′-pyrrolidine]-2′,5′,7-trione]: the half-maximal inhibitory concentration (IC50) (in general, the concentration at which inhibition is half-maximal) amounted to 311 nM at CDK6-CYCLIND3 and 105 nM on CDK4-CYCLIND1.
Taken in the same sequence, the figures for `CN1C(=O)CC2(Cc3cnc(Nc4ccc(N5CCNCC5)c(F)c4)nc3N(C3CCCC3)C2=O)C1=O` (centres unmarked) [Example D27, 8-cyclopentyl-2-((3-fluoro-4-(piperazin-1-yl)phenyl)amino)-1′-methyl-5,8-dihydro-7H-spiro[pyrido[2,3-d]pyrimidine-6,3′-pyrrolidine]-2′,5′,7-trione] were 141 nM and 34.8 nM.
The matching figures for `CN(C)CCOc1ccc(Nc2ncc3c(n2)N(C2CCCC2)C(=O)C2(CC(=O)N(C)C2=O)C3)cc1` (centres unmarked) [Example D28, 8-cyclopentyl-2-((4-(2-(dimethylamino)ethoxy)phenyl)amino)-1′-methyl-5,8-dihydro-7H-spiro[pyrido[2,3-d]pyrimidine-6,3′-pyrrolidine]-2′,5′,7-trione]: 491 nM and 155 nM.
The matching figures for `CN(C)CCOc1ccc(Nc2ncc3c(n2)N(C2CCCC2)C(=O)C2(CC(=O)N(C)C2=O)C3)cn1` (centres unmarked) [Example D29, 8-cyclopentyl-2-((6-(2-(dimethylamino)ethoxy)pyridin-3-yl)amino)-1′-methyl-5,8-dihydro-7H-spiro[pyrido[2,3-d]pyrimidine-6,3′-pyrrolidine]-2′,5′,7-trione]: 1050 nM and 367 nM.
With `CN1C(=O)CC2(Cc3cnc(Nc4ccc(OCCN5CCCC5)c(F)c4)nc3N(C3CCCC3)C2=O)C1=O` (centres unmarked) [Example D30, 8-cyclopentyl-2-((3-fluoro-4-(2-(pyrrolidin-1-yl)ethoxy)phenyl)amino)-1′-methyl-5,8-dihydro-7H-spiro[pyrido[2,3-d]pyrimidine-6,3′-pyrrolidine]-2′,5′,7-trione], the IC50 at CDK6-CYCLIND3 worked out at 1450 nM; at CDK4-CYCLIND1, 472 nM.
For `CN1C(=O)CC2(Cc3cnc(Nc4ccc(OCCN5CCCC5)nc4)nc3N(C3CCCC3)C2=O)C1=O` (centres unmarked) [Example D31, 8-cyclopentyl-1′-methyl-2-((6-(2-(pyrrolidin-1-yl)ethoxy)pyridin-3-yl)amino)-5,8-dihydro-7H-spiro[pyrido[2,3-d]pyrimidine-6,3′-pyrrolidine]-2′,5′,7-trione], the IC50 at CDK6-CYCLIND3 was found to be 628 nM; on CDK4-CYCLIND1 it was 185 nM.
Taken in the same sequence, the figures for `O=C1NCCC12Cc1cnc(Nc3ccc(N4CCNCC4)cc3F)nc1N(C1CCCC1)C2=O` (centres unmarked) [Example D32, 8-cyclopentyl-2-((2-fluoro-4-(piperazin-1-yl)phenyl)amino)-5,8-dihydro-7H-spiro[pyrido[2,3-d]pyrimidine-6,3′-pyrrolidine]-2′,7-dione] were 11.2 nM and 5.16 nM.
For the compound `CC(C)N1CCN(c2ccc(Nc3ncc4c(n3)N(C3CCCC3)C(=O)C3(CCNC3=O)C4)c(F)c2)CC1` (centres unmarked) [Example D33, 8-cyclopentyl-2-((2-fluoro-4-(4-isopropylpiperazin-1-yl)phenyl)amino)-5,8-dihydro-7H-spiro[pyrido[2,3-d]pyrimidine-6,3′-pyrrolidine]-2′,7-dione], the IC50 came out at 22600 nM on CDK6-CYCLIND3 and 9340 nM against CDK4-CYCLIND1.
For `O=C1NCCC12Cc1cnc(Nc3ccc(OCCN4CCCCC4)cn3)nc1N(C1CCCC1)C2=O` (centres unmarked) [Example D34, 8-cyclopentyl-2-((5-(2-(piperidin-1-yl)ethoxy)pyridin-2-yl)amino)-5,8-dihydro-7H-spiro[pyrido[2,3-d]pyrimidine-6,3′-pyrrolidine]-2′,7-dione], the IC50 on CDK6-CYCLIND3 stood at 56.5 nM; on CDK4-CYCLIND1, 44.6 nM.
In the case of `O=C1NCCC12Cc1cnc(Nc3ccc(OCCN4CCCCC4)nc3)nc1N(C1CCCC1)C2=O` (centres unmarked) [Example D35], the IC50 was found to be 14.4 nM at CDK6-CYCLIND3 and 7.01 nM on CDK4-CYCLIND1.
The matching figures for `Cc1cc(Nc2ncc3c(n2)N(C2CCCC2)C(=O)C2(CCNC2=O)C3)ccc1N1CCN(C(C)C)CC1` (centres unmarked) [Example D36, 8-cyclopentyl-2-((4-(4-isopropylpiperazin-1-yl)-3-methylphenyl)amino)-5,8-dihydro-7H-spiro[pyrido[2,3-d]pyrimidine-6,3′-pyrrolidine]-2′,7-dione]: 4.53 nM and 1.96 nM.
Taken in the same sequence, the figures for `COc1cc(Nc2ncc3c(n2)N(C2CCCC2)C(=O)C2(CCNC2=O)C3)ccc1N1CCN(C(C)C)CC1` (centres unmarked) [Example D37, 8-cyclopentyl-2-((4-(4-isopropylpiperazin-1-yl)-3-methoxyphenyl)amino)-5,8-dihydro-7H-spiro[pyrido[2,3-d]pyrimidine-6,3′-pyrrolidine]-2′,7-dione] were 8.12 nM and 3.18 nM.
As for `O=C1NCCC12Cc1cnc(Nc3ccc(N4CCC(N5CCOCC5)CC4)c(F)c3)nc1N(C1CCCC1)C2=O` (centres unmarked) [Example D38, 8-cyclopentyl-2-((3-fluoro-4-(4-morpholinopiperidin-1-yl)phenyl)amino)-5,8-dihydro-7H-spiro[pyrido[2,3-d]pyrimidine-6,3′-pyrrolidine]-2′,7-dione], the IC50 at CDK6-CYCLIND3 was 7.1 nM; at CDK4-CYCLIND1, 3.87 nM.
Regarding `O=C1NCCC12Cc1cnc(Nc3ccc(N4CCC(N5CCOCC5)CC4)cn3)nc1N(C1CCCC1)C2=O` (centres unmarked) [Example D39, 8-cyclopentyl-2-((5-(4-morpholinopiperidin-1-yl)pyridin-2-yl)amino)-5,8-dihydro-7H-spiro[pyrido[2,3-d]pyrimidine-6,3′-pyrrolidine]-2′,7-dione], the values for the IC50 on CDK6-CYCLIND3 and at CDK4-CYCLIND1 were 13.3 nM and 7.29 nM, respectively.
Regarding `O=C1NCCC12Cc1cnc(Nc3ccc(N4CC5(CNC5)C4)cc3)nc1N(C1CCCC1)C2=O` (centres unmarked) [Example D40, 2-((4-(2,6-diazaspiro[3.3]heptan-2-yl)phenyl)amino)-8-cyclopentyl-5,8-dihydro-7H-spiro[pyrido[2,3-d]pyrimidine-6,3′-pyrrolidine]-2′,7-dione], the IC50 at CDK6-CYCLIND3 was found to be 4.93 nM; against CDK4-CYCLIND1 it was 2.12 nM.
In the case of `O=C1NCCC12Cc1cnc(Nc3ccc(N4CC5(CNC5)C4)cn3)nc1N(C1CCCC1)C2=O` (centres unmarked) [Example D41, 2-((5-(2,6-diazaspiro[3.3]heptan-2-yl)pyridin-2-yl)amino)-8-cyclopentyl-5,8-dihydro-7H-spiro[pyrido[2,3-d]pyrimidine-6,3′-pyrrolidine]-2′,7-dione], the half-maximal inhibitory concentration (IC50) on CDK6-CYCLIND3 amounted to 8.79 nM; against CDK4-CYCLIND1, 4.61 nM.
As for `O=C1NCCC12Cc1cnc(Nc3ccc(N4CC5(CNC5)C4)nc3)nc1N(C1CCCC1)C2=O` (centres unmarked) [Example D42, 2-((6-(2,6-diazaspiro[3.3]heptan-2-yl)pyridin-3-yl)amino)-8-cyclopentyl-5,8-dihydro-7H-spiro[pyrido[2,3-d]pyrimidine-6,3′-pyrrolidine]-2′,7-dione], the IC50 turned out to be 6.19 nM at CDK6-CYCLIND3 and 2.72 nM at CDK4-CYCLIND1.
The matching figures for `O=C1NCCC12Cc1cnc(Nc3ccc(N4CC5(CNC5)C4)c(F)c3)nc1N(C1CCCC1)C2=O` (centres unmarked) [Example D43]: 4.95 nM and 2.42 nM.
Taken in the same sequence, the figures for `CN(C)[C@H]1CCN(c2ccc(Nc3ncc4c(n3)N(C3CCCC3)C(=O)C3(CCNC3=O)C4)cc2)C1` (stereo partly drawn) [Example D44, 8-cyclopentyl-2-((4-((S)-3-(dimethylamino)pyrrolidin-1-yl)phenyl)amino)-5,8-dihydro-7H-spiro[pyrido[2,3-d]pyrimidine-6,3′-pyrrolidine]-2′,7-dione] were 24.6 nM and 12 nM.
The matching figures for `CN(C)[C@H]1CCN(c2ccc(Nc3ncc4c(n3)N(C3CCCC3)C(=O)C3(CCNC3=O)C4)cc2F)C1` (stereo partly drawn) [Example D45, 8-cyclopentyl-2-((4-((S)-3-(dimethylamino)pyrrolidin-1-yl)-3-fluorophenyl)amino)-5,8-dihydro-7H-spiro[pyrido[2,3-d]pyrimidine-6,3′-pyrrolidine]-2′,7-dione]: 5.46 nM and 2.68 nM.
With `CN(C)[C@H]1CCN(C(=O)c2ccc(Nc3ncc4c(n3)N(C3CCCC3)C(=O)C3(CCNC3=O)C4)cc2)C1` (stereo partly drawn) [Example D46, 8-cyclopentyl-2-((4-((S)-3-(dimethylamino)pyrrolidine-1-carbonyl)phenyl)amino)-5,8-dihydro-7H-spiro[pyrido[2,3-d]pyrimidine-6,3′-pyrrolidine]-2′,7-dione], the IC50 worked out at 8.36 nM on CDK6-CYCLIND3 and 3.23 nM at CDK4-CYCLIND1.
Taken in the same sequence, the figures for `CN(C)[C@H]1CCN(C(=O)c2ccc(Nc3ncc4c(n3)N(C3CCCC3)C(=O)C3(CCNC3=O)C4)cn2)C1` (stereo partly drawn) [Example D47, 8-cyclopentyl-2-((6-((S)-3-(dimethylamino)pyrrolidine-1-carbonyl)pyridin-3-yl)amino)-5,8-dihydro-7H-spiro[pyrido[2,3-d]pyrimidine-6,3′-pyrrolidine]-2′,7-dione] were 10.6 nM and 3.37 nM.
The matching figures for `CN(C)[C@H]1CCN(C(=O)c2ccc(Nc3ncc4c(n3)N(C3CCCC3)C(=O)C3(CCNC3=O)C4)cc2F)C1` (stereo partly drawn) [Example D48, 8-cyclopentyl-2-((4-((S)-3-(dimethylamino)pyrrolidine-1-carbonyl)-3-fluorophenyl)amino)-5,8-dihydro-7H-spiro[pyrido[2,3-d]pyrimidine-6,3′-pyrrolidine]-2′,7-dione]: 5.53 nM and 1.95 nM.

The values above are taken from patent publication US20230048132A1, “CYCLIN-DEPENDENT KINASE INHIBITORS” (SPV THERAPEUTICS INC., priority 2018, published 2023).
